Results published in ChEMBL document CHEMBL5050836, “Inhibitors of eya3-protein tyrosine phosphatase in dna damage repair signaling of pulmonary arterial hypertension” (2021).
The source made the active and inactive calls. The calls are words filed in the database; no cut-off is given here.

Assays:
[1] = system: Lung; experiment: Protection against pulmonary hypertension in Sugen-Hypoxia (SuHx) rat model assessed as reduction in gamma-H2AX foci in lungs; format: functional, tissue-based
[2] = system: Liver; experiment: Hepatotoxicity in rats at 0.15 to 1.5 mg administered via instillation in to trachea; format: toxicity; details: rat, in vivo, inhaled_or_intranasal; dose 0.15-1.5 mg
[3] = system: Lung; experiment: Protection against pulmonary hypertension in Sugen-Hypoxia (SuHx) rat model assessed as reduction in 53BP1 foci in lungs; format: functional, tissue-based

CCc1oc2ccccc2c1C(=O)c1ccc(O)cc1 [BENZARONE]
Activity [1]: Active
Activity [2]: Non-Toxic
Activity [3]: Active
